# Data: patent US11419913B2, “Pharmaceutical compositions for inhibiting inflammatory cytokines” (S.I.S. SHULOV INNOVATIVE SCIENCE LTD., priority 2018, dated 2022)
# Entries after “also recorded” stand apart in the source; their conditions may differ. Marks after values point to notes of the source that are not given here. Where a SMILES comes first, the peptide text is derived from it. [ ]: non-standard residue; d: D form. The star is where a group is joined. pGlu = O=C1CC[C@@H](C(=O)O)N1; Octanoyl = CCCCCCCC(=O)*
# Key:
# [1] = system: Reactive Oxygen Species (ROS); experiment: ROS production in corneal epithelial cell culture dry eye disease model; type: cell-based, human
# Description: The anti-inflammatory effect of the peptides in experimental corneal inflammation was tested in a cell culture model using various inflammasome inducers such as LPS, 4-HNE, Nigericin and others to model a dry-eye-disease (DED). Using a dose-response model, human primary corneal epithelial cells were pre-treated with the peptides followed by exposure to DED inducers. Expression of IL-6 was measured as well as cell viability, ROS production.
# Human primary Corneal Epithelial Cells (PCS-700-010; HCECs) were treated with ZEP3 at concentrations ranging from 3 to 12 μg/ml for 2 hours then exposed to LPS, 4-HNE or Nigericin for 24 hours. Following incubation, the levels of the pro-inflammatory cytokine IL-6, cell viability and reactive oxygen species (ROS) production in the cell cultures were measured.
# TNF alpha [2] = experiment: Expression of TNF alpha by B6 macrophage cells treated with LPS and palmitic acid; type: cell-based, mouse
# Description: Macrophages originating from C57BL/6 mice were cultured at a density of 200,000 cells/mL in a 24-well plate (500 μl wells) and incubated at 37° C. and 5% CO2 overnight. Following incubation, culture media in certain experimental groups were replaced with fresh media containing 100 ng/mL LPS, followed by three hours incubation. Then, the media (LPS-containing or LPS-free) in certain experimental groups were replaced with fresh media containing ZEP4 at concentrations ranging from 3.125 to 100 μg/ml, followed by one-hour incubation. Next, palmitic acid (PA, 200 μM) was added to the appropriate wells and the plates were incubated for additional 24 hours, then the amount of TNF alpha in each well was measured. Reduction in TNF alpha production in the treatment groups was calculated relative to cells treated with LPS and PA (CLP200).
# Macrophages originating from C57BL/6 mice were cultured at a density of 200,000 cells/mL in a 24-well plate (500 μl wells) and incubated at 37° C. and 5% CO2 overnight. Following incubation, media were replaced with fresh media containing 100 ng/mL LPS, followed by three hours incubation. The LPS-containing media in the treatment groups were then replaced with fresh media containing ZEP4 at 50 μg/ml, followed by one-hour incubation. Then, aliquots of palmitic acid (100, 200 or 400 μM) were added to appropriate wells. The plates were incubated for additional 24 hour and the amount of TNF alpha in each well was measured. Reduction in TNF alpha production in the treatment groups was calculated relative to cells treated with LPS and PA, according to the PA concentration.
# Macrophage cells originating from C57BL/6 mice were cultured at a density of 200,000 cells/mL in a 24-well plate (500 μl wells) and incubated at 37° C. and 5% CO2 overnight. Following incubation, media in certain experimental groups were replaced with fresh media containing 100 ng/mL LPS, followed by three hours incubation. Then, the media (LPS-containing or LPS-free) in certain experimental groups were replaced with fresh media containing ZEP3 at a concentration ranging from 3.125 to 100 μg/ml, followed by one-hour incubation. Next, palmitic acid (200 μM) aliquots were added to the appropriate wells and the plates were incubated for additional 24 hours, then the amount of TNF alpha in each well was measured. Reduction in TNF alpha production in the treatment groups was calculated relative to cells treated with LPS and PA.
# TNF alpha [3] = experiment: TNF alpha secretion in LPS treated human keratinocytes (ELISA); type: cell-based; conditions: for TNF alpha levels / production in LPS treated human keratinocytes (in words): compared with cells stimulated with LPS alone; for TNFα: ZEP3Na without DMSO; for Fold Change: refers to TNF-α concentration in sample #2; for % Inhibition: vs corresponding control group without peptide
# Description: Methods: SCCE020 cells (EpiGRO™ Human Epidermal Keratinocytes) were grown in complete growth medium (EpiGRO™ Human Keratinocytes Complete Medium; Millipore Cat. #SCMK001) for 4 passages. At passage 5, cells were seeded (3*10^5 cells/well) in triplicates in a volume of 1 ml complete growth medium per well. Additional 3 control wells contained only medium without cells. Upon adherence, cell medium was replaced by basal medium containing L-Glutamine without supplements (starvation medium) and cells were starved overnight. The next day, 24 hours after seeding, the cells were treated with ZEP3 or ZEP3Na or appropriate diluent (PBS or DMSO). After 4 hours of incubation, LPS (from E. Coli 055: B5; Sigma Cat. #L6529-1MG) was added to the wells in final concentration of 20 or 30 μg/ml.
# Cells were incubated for 24 hours in tissue culture incubator. After collecting cell supernatants from all wells, cells from treatment groups: 1, 2, 3, 8, 9, 10, 13, 14 (without DMSO groups) were pelleted and stored at −80° C. for further analyses. The cells were collected from as following: upon supernatants collection, the wells were rinsed with trypsin, then incubated with trypsin until they detached from the plate surface, centrifuged, washed with PBS and stored as a cell pellet. TNF-α concentration in the supernatants was measured by ELISA (Quantikine HS ELISA; R&D Systems Cat. #HSTA00D), in 5 replicates.
# TNF alpha concentration in the samples was calculated according to the standard curve trend line equation: =0.063x+0.1718. Percent inhibition of TNF alpha production was calculated in each treatment group in comparison to the corresponding control group (same conditions, without peptide).
# [4] = system: oxazolone-induced atopic dermatitis (AD) mouse models; experiment: Oxazolone-induced atopic dermatitis mouse model, clinical lesions; type: in vivo; conditions: for Scaling: period of reduction: 1% cream topical, 50 mg/kg, scaling score of back skin; for Right ear thickness, significant difference in comparison to control: days 20, 22 and 28; for Erythema scoring: days with a significant difference / total score: days with significant difference: vs control group
# Description: The effect of topical administration of ZEP3 (SEQ ID NO: 1), and its sodium salt form (ZEP3Na), and ZEP4 (SEQ ID NO: 2) was evaluated in oxazolone-induced atopic dermatitis (AD) mouse models. This model is widely used and well described in literature (Avci et al. 2013 Expert Opin Drug Discov. 8, 331-355; Petersen T. K. 2006, Basic Clin. Pharmacol. Toxicol. 99, 104-115) as an accepted animal model for evaluating drugs for AD therapy in humans.
# [5] = Oxazolone-induced atopic dermatitis mouse model, tolerability and bodyweights; conditions: for tolerability: 50 mg/kg topical to atopic dermatitis induced mice; for Bodyweights in comparison to the excipient: day 8 to day 28
# Description: Method: Animals were sensitized by topical administration of oxazolone 2% in ethanol on the back at Day 0 after shaving and depilation of the animals (sensitization phase). Then a challenge was performed one week later by topical administration of oxazolone 1% in ethanol on the back and on right ear every 2 days at 10 occasions namely for total 3 weeks. The tested compounds were applied during the challenge phase every 2 days via the topical route as ready to use cream formulations. The surface of application was the same as for challenge (back+ear). 100 μL were deposited on the back and the back was smoothly massaged. Then, remaining formulation on finger glove was deposited on the internal face of the ear. Every other day, back skin and ears thickness were measured using caliper; and the following clinical scores were recorded from back skin: erythema and scaling. Animals were also weighed every other day (approximate bodyweights of a mouse at startup is about 20 g).
# The formulations used for topical administration of the tested compound were: ZEP3 1% cream having pH 7.1 and comprising: Propylene glycol, Polysorbate 80, Edetate Disodium, Silicon dioxide (syloid), Methylparaben, White petrolatum, Isopropyl Myristate, Cetyl Alcohol and Glyceryl Monostearate. ZEP3Na 1% cream having pH 8.0 and comprising: Propylene glycol, Polysorbate 80, Edetate Disodium, Silicon dioxide (syloid), Methylparaben, White petrolatum, Isopropyl Myristate, Cetyl Alcohol and Glyceryl Monostearate. ZEP4 1% cream having pH 4.5 and comprising: Propylene glycol, Glycerin, Polysorbate 80, EDTA Disodium, Xanthan Gum, Silicon dioxide (syloid), Methylparaben, White petrolatum, Isopropyl Myristate, Cetyl Alcohol, Stearyl Alcohol, and Glyceryl Monostearate (kolliwax).
# [6] = peptide 3.125 μg/ml, LPS 100 ng/mL, palmitic acid 200 μM, 24 hours
# [7] = peptide 3.125 μg/ml, LPS 100 ng/mL, palmitic acid 200 μM, relative to cells treated with LPS and PA
# [8] = peptide 6.25 μg/ml, LPS 100 ng/mL, palmitic acid 200 μM, 24 hours
# [9] = peptide 6.25 μg/ml, LPS 100 ng/mL, palmitic acid 200 μM, relative to cells treated with LPS and PA
# [10] = peptide 12.5 μg/ml, LPS 100 ng/mL, palmitic acid 200 μM, 24 hours
# [11] = peptide 12.5 μg/ml, LPS 100 ng/mL, palmitic acid 200 μM, relative to cells treated with LPS and PA
# [12] = peptide 25 μg/ml, LPS 100 ng/mL, palmitic acid 200 μM, 24 hours
# [13] = peptide 25 μg/ml, LPS 100 ng/mL, palmitic acid 200 μM, relative to cells treated with LPS and PA
# [14] = peptide 50 μg/ml, LPS 100 ng/mL, palmitic acid 200 μM, 24 hours
# [15] = peptide 50 μg/ml, LPS 100 ng/mL, palmitic acid 200 μM, relative to cells treated with LPS and PA
# [16] = peptide 100 μg/ml, LPS 100 ng/mL, palmitic acid 200 μM, 24 hours
# [17] = peptide 100 μg/ml, LPS 100 ng/mL, palmitic acid 200 μM, relative to cells treated with LPS and PA
# [18] = peptide control: peptide 100 μg/ml, no LPS, no palmitic acid
# [19] = peptide 0.2 mg/ml, LPS 20 μg/ml
# [20] = peptide 0.2 mg/ml, LPS 30 μg/ml
# [21] = peptide 0.4 mg/ml, LPS 20 μg/ml
Structure (SMILES),TNF alpha (TNF alpha [2]; [6]),% reduction of TNF alpha (TNF alpha [2]; [7]),TNF alpha (TNF alpha [2]; [8]),% reduction of TNF alpha (TNF alpha [2]; [9]),TNF alpha (TNF alpha [2]; [10]),% reduction of TNF alpha (TNF alpha [2]; [11]),TNF alpha (TNF alpha [2]; [12]),% reduction of TNF alpha (TNF alpha [2]; [13]),TNF alpha (TNF alpha [2]; [14]),% reduction of TNF alpha (TNF alpha [2]; [15]),TNF alpha (TNF alpha [2]; [16]),% reduction of TNF alpha (TNF alpha [2]; [17]),TNF alpha (TNF alpha [2]; [18]),TNF alpha levels / production in LPS treated human keratinocytes (in words) (TNF alpha [3]),Scaling: period of reduction [4],"Right ear thickness, significant difference in comparison to control [4]",Erythema scoring: days with a significant difference [4],total score: days with significant difference [4],tolerability [5],Bodyweights in comparison to the excipient [5],also measured
"CCCCCCCC(=O)NCCCC[C@H](NC(=O)[C@H](Cc1c[nH]c2ccccc12)NC(=O)[C@H](CC(N)=O)NC(=O)[C@@H]1CCC(=O)N1)C(=O)O [ZEP3, pGlu-Asn-Trp-Lys(Octanoyl)-OH] ([pGlu]NWK(Octanoyl)-OH)",41.98 pg/mL,82.9%,75.52 pg/mL,69.2%,74.83 pg/mL,69.5%,61.57 pg/mL,74.9%,106.75 pg/mL,56.4%,176.22 pg/mL,28.1%,10.44 pg/mL,effectively diminished; also recorded: dose dependent inhibition,reduced from days 18 to 24,−10.1 to −18.0%,days 22 and 24,"days 20, 24 and 28",well tolerated,behaved normally,"level of ROS in cell culture ([1]; HCECs pre-treated with ZEP3, exposed to 4-HNE for 24 hours, DCFDA kit (FIG. 8)): 13000±800 RFU; reduction of ROS level ([1]; ZEP3 treated vs untreated cell culture, 4-HNE 24 hours (FIG. 8)): 51.9%; ED50 (reduction of TNF alpha expression) (TNF alpha [2]; macrophage cells treated with LPS 100 ng/mL and palmitic acid 200 μM, estimated): 51.94 µg/mL; TNFα (TNF alpha [3]; peptide 0.02 mg/ml, LPS 20 μg/ml, ZEP3 in 0.025% DMSO): 9.6 pg/mL; Fold Change (TNF alpha [3]; peptide 0.02 mg/ml, LPS 20 μg/ml): 3.4; TNFα (TNF alpha [3]; peptide 0.2 mg/ml, LPS 20 μg/ml, ZEP3 in 0.05% DMSO): 6.0 pg/mL; Fold Change (TNF alpha [3]; [19]): 2.1; % Inhibition (TNF alpha [3]; [19]): 32%; TNFα (TNF alpha [3]; peptide 0.2 mg/ml, LPS 30 μg/ml, ZEP3 in 0.10% DMSO): 17.3 pg/mL; Fold Change (TNF alpha [3]; [20]): 6.1; % Inhibition (TNF alpha [3]; [20]): 20%; TNFα (TNF alpha [3]; peptide 0.4 mg/ml, LPS 20 μg/ml, ZEP3 in 0.10% DMSO): 4.6 pg/mL; Fold Change (TNF alpha [3]; [21]): 1.6; % Inhibition (TNF alpha [3]; [21]): 48%; Significant difference on back thickness vs. control group 1 ([4]; day 20): −25.5%; Significant difference on back thickness vs. control group 1 ([4]; day 24): −16.6%"
"C[C@@H](O)[C@H](NC(=O)[C@H](Cc1c[nH]c2ccccc12)NC(=O)[C@H](CC(N)=O)NC(=O)[C@@H]1CCC(=O)N1)C(=O)O [ZEP4, pGlu-Asn-Trp-Thr-OH] (HELM PEPTIDE1{[Glp].N.W.T}$$$$V2.0)",97.79 pg/mL,70.6%,89.83 pg/mL,73.0%,93.12 pg/mL,72.0%,115.58 pg/mL,65.2%,76.23 pg/mL,77.0%,211.68 pg/mL,36.3%,0 pg/mL,effectively diminished,from days 14 to 24,−12.3 to −16.0%,"days 12, 16, 22 and 24","days 12-20, 24 and 28",well tolerated,behaved normally,"TNF alpha (TNF alpha [2]; Table 2: ZEP4 50 μg/ml, LPS 100 ng/ml, palmitic acid 100 μM): 133.93 pg/mL; % reduction of TNF alpha (TNF alpha [2]; Table 2: ZEP4 50 μg/ml, LPS 100 ng/ml, palmitic acid 100 μM, relative to LPS and PA 100 μM): 67.8**** %; TNF alpha (TNF alpha [2]; Table 2: ZEP4 50 μg/ml, LPS 100 ng/ml, palmitic acid 200 μM): 167.52 pg/mL; % reduction of TNF alpha (TNF alpha [2]; Table 2: ZEP4 50 μg/ml, LPS 100 ng/ml, palmitic acid 200 μM, relative to LPS and PA 200 μM): 63.7**** %; TNF alpha (TNF alpha [2]; Table 2: ZEP4 50 μg/ml, LPS 100 ng/ml, palmitic acid 400 μM): 252.177 pg/mL; % reduction of TNF alpha (TNF alpha [2]; Table 2: ZEP4 50 μg/ml, LPS 100 ng/ml, palmitic acid 400 μM, relative to LPS and PA 400 μM): 57.5**** %; Significant difference on back thickness vs. control group 1 ([4]; day 14): −13.5%"
